Tests used:
[1] = Excipient solubility in HPLC method diluent; format: physicochemical; conditions: approximately 1 to 2 mg/mL
[2] = compared with S-baclofen; cited from earlier work
[3] = animal models; cited from earlier work

Compound | Completely Soluble in 85% 50 mM Potassium Phosphate, pH 3.0, 15% ACN [1] | further results
NC[C@H](CC(=O)O)c1ccc(Cl)cc1 (single isomer, unassigned) [R-baclofen] | – | potency in reducing obsessive-compulsive and repetitive behavior and audiogenic seizures [2]: more potent than S-baclofen
OC[C@@H](O)[C@@H](O)[C@H](O)[C@H](O)CO [Pearlitol 300DC, Mannitol] | Yes | –
NCC(CC(=O)O)c1ccc(Cl)cc1 (racemic) [Baclofen, (±)-4-Amino-3-(4-chlorophenyl) butanoic acid] | – | absorption following administration into the colon [3]: poorly absorbed

Now from value to molecule, other results behind:

Completely Soluble in 85% 50 mM Potassium Phosphate, pH 3.0, 15% ACN [1] | Compound | further results
Yes | OC[C@H]1O[C@H](O[C@]2(CCl)O[C@H](CCl)[C@@H](O)[C@@H]2O)[C@H](O)[C@@H](O)[C@H]1Cl [Sucralose] | –
No | CCCCCCCCCCCCCCCCCCOC(=O)/C=C/C(=O)[O-].[Na+] [Pruv, Sodium Stearyl Fumarate] | –
